Measurements published in the supplement of paper PMC10307832.

Experiments:
Test in all cases: relative viability (nuclei count vs DMSO), 5 days (fraction); higher = more cells survive
[1] = compound: C=CC(=O)Nc1cc(-n2c(=O)ccc3cnc4ccc(-c5ccc(NS(C)(=O)=O)cc5)cc4c32)ccc1C [BMX-IN-1] + CC1(C)CCC(c2ccc(Cl)cc2)=C(CN2CCN(c3ccc(C(=O)NS(=O)(=O)c4ccc(N[C@H](CCN5CCOCC5)CSc5ccccc5)c(S(=O)(=O)C(F)(F)F)c4)cc3)CC2)C1 [Navitoclax] (partner 0.5 µM)
How it was run: (§1)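 Each reported value is a median over duplicate plates. It expresses relative viability: treated-well nuclei count divided by vehicle-well nuclei count. Lung cancer cell lines in 1536-well plates were dosed by pin tool a day after seeding, alone with one drug or with a fixed anchor-drug dose plus five library-drug doses (not always all listed) in √10 steps, and nuclei were counted after 5 days.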

[2] = compound: C=CC(=O)Nc1cc(-n2c(=O)ccc3cnc4ccc(-c5ccc(NS(C)(=O)=O)cc5)cc4c32)ccc1C [BMX-IN-1] + NC(=O)Nc1cc(-c2cccc(F)c2)sc1C(=O)N[C@H]1CCCNC1 [AZD7762] (partner 0.2 µM)
How it was run: as §1

[3] = compound: C=CCc1cccc(/C=N/NC(=O)CN2CCN(Cc3ccccc3)CC2)c1O [PAC-1] + CC(=O)c1c(C)c2cnc(Nc3ccc(N4CCNCC4)cn3)nc2n(C2CCCC2)c1=O [Palbociclib] (partner 0.5 µM)
How it was run: as §1

[4] = compound: C=CCc1cccc(/C=N/NC(=O)CN2CCN(Cc3ccccc3)CC2)c1O [PAC-1] + CCNC(=O)c1noc(-c2cc(C(C)C)c(O)cc2O)c1-c1ccc(CN2CCOCC2)cc1 [Luminespib] (partner 0.01 µM)
How it was run: as §1

[5] = compound: C=CCc1cccc(/C=N/NC(=O)CN2CCN(Cc3ccccc3)CC2)c1O [PAC-1] + CS(=O)(=O)CCNCc1ccc(-c2ccc3ncnc(Nc4ccc(OCc5cccc(F)c5)c(Cl)c4)c3c2)o1 [Lapatinib] (partner 2 µM)
How it was run: as §1

Cell Line	relative viability ([1]; first compound 0.02 µM)	relative viability ([1]; first compound 0.2 µM)	relative viability ([1]; first compound 0.6325 µM)	relative viability ([1]; first compound 2 µM)	relative viability ([2]; first compound 0.02 µM)	relative viability ([2]; first compound 0.2 µM)	relative viability ([2]; first compound 0.6325 µM)	relative viability ([2]; first compound 2 µM)	relative viability ([3]; first compound 0.02 µM)	relative viability ([3]; first compound 0.06325 µM)	relative viability ([3]; first compound 0.2 µM)	relative viability ([3]; first compound 2 µM)	relative viability ([4]; first compound 0.02 µM)	relative viability ([4]; first compound 0.06325 µM)	relative viability ([4]; first compound 0.2 µM)	relative viability ([4]; first compound 2 µM)	relative viability ([5]; first compound 0.02 µM)	relative viability ([5]; first compound 0.06325 µM)	relative viability ([5]; first compound 0.2 µM)	relative viability ([5]; first compound 2 µM)
201T	1.14	1.21	1.18	1.2	0.728	0.63	0.662	0.56	0.347	0.346	0.37	0.363	1.03	1.05	1.09	1.04	0.98	1.01	1.1	1.05
A549	1.5	1.44	1.37	1.17													0.935	0.804	1	1.06
A-427	1.04	0.987	0.971	1.01	0.796	1.14	0.84	0.806	0.574	0.548	0.549	0.507	1.13	0.769	0.988	0.951	1.06	1.03	1.08	0.71
ABC-1					0.761	0.848	0.82	0.868	0.63	0.742	0.678	0.638	0.526	0.803	0.682	0.519	1.35	1.22	1.18	1.07
BEN	0.066	0.0691	0.224	0.0676	0.747	0.706	0.69	0.707	0.443	0.489	0.47	0.459	0.594	0.282	0.535	0.273	0.629	0.604	0.671	0.75
CAL-12T	1.28	1.21	1.22	1.24	0.665	0.76	0.647	0.613	0.544	0.52	0.379	0.513	0.268	0.517	0.381	0.247	0.604	0.788	0.665	0.599
COR-L23	1.52	1.46	1.14	1.02					0.33	0.243		0.277	0.569	0.71	0.629	0.625	1.06	0.963	0.833	0.928
COR-L 105	0.756	0.779	0.875	0.709					0.367	0.402	0.379	0.461	0.769	0.788	0.627	0.725	0.294	0.361	0.413	0.406
Calu-6	1.08	1.06	0.902	0.823													1.06	1.08	1.01	1.18
ChaGo-K-1	0.937	0.988	1.27	0.531	1.02	1.02	0.885	0.907	0.914	0.933	0.956	0.954	0.645	0.737	0.645	0.715				
EBC-1	0.425	0.341	0.434	0.329													0.184	0.218	0.23	0.225
EKVX	0.979	1.13	0.966	1	1.02	0.81	0.843	0.723	0.389	0.385	0.308	0.388	0.917	0.855	0.815	0.837	0.203	0.18	0.208	0.176
EMC-BAC-2	1.41	1.35	1.08	1.19	1.32	1.31	1.1	1.14	0.55	0.524	0.519	0.519	1.19	1.17	1.18	1.15	0.841	0.865	0.899	0.974
EPLC-272H	1.25	1.22	1.08	1.18	0.231	0.217	0.476	0.202	0.279	0.28	0.293	0.268	0.296	0.262	0.202	0.277		1.2	0.978	0.942
H3255	0.51	0.595	0.544	0.633	0.93	0.866	1.05	0.874	0.359	0.298	0.299	0.291	0.905	0.852	0.672	0.804	0.268	0.256	0.246	0.269
HARA	1.22	1.36	1.09	1.08	0.47	0.454	0.26	0.322	0.228	0.225	0.247	0.329	0.554	0.674	0.793	0.937	0.698	0.875	0.796	0.905
HCC-15	0.768	0.726	0.706	0.73	0.591	1.24	1.35	1.29	0.743	0.747	0.628	0.689	0.447	0.37	0.355	0.279	0.907	0.945	0.814	0.861
HCC-78	0.859	0.851	1	0.863	0.662	0.64	0.587	0.726	0.477	0.454	0.505	0.465					0.753	0.822	0.657	1.05
HCC-366	1.54	1.29	1.15	1.05	0.38	0.417	0.416	0.343	0.364	0.377	0.365	0.404					1.07	1.03	1.06	0.976
IA-LM	0.937	0.796	0.807	0.722													0.937	0.922	0.715	1.08
LCLC-103H					0.824	0.887	0.773	0.82	0.482	0.489	0.503	0.438	1.06	0.932	0.981	0.911				

Cell Line	relative viability ([1]; first compound 0.02 µM)	relative viability ([1]; first compound 0.2 µM)	relative viability ([1]; first compound 0.6325 µM)	relative viability ([1]; first compound 2 µM)	relative viability ([2]; first compound 0.02 µM)	relative viability ([2]; first compound 0.2 µM)	relative viability ([2]; first compound 0.6325 µM)	relative viability ([2]; first compound 2 µM)	relative viability ([3]; first compound 0.02 µM)	relative viability ([3]; first compound 0.06325 µM)	relative viability ([3]; first compound 0.2 µM)	relative viability ([3]; first compound 2 µM)	relative viability ([4]; first compound 0.02 µM)	relative viability ([4]; first compound 0.06325 µM)	relative viability ([4]; first compound 0.2 µM)	relative viability ([4]; first compound 2 µM)	relative viability ([5]; first compound 0.02 µM)	relative viability ([5]; first compound 0.06325 µM)	relative viability ([5]; first compound 0.2 µM)	relative viability ([5]; first compound 2 µM)
NCI-H358					0.448	0.504	0.491	0.486	0.12	0.133	0.116	0.115	0.411	0.404	0.32	0.265	0.473	0.525	0.477	0.388
NCI-H441	0.466	0.85	1.08	0.755	1.12	1.03	0.997	1.39	0.194	0.266	0.26	0.2	0.285	0.254	0.471	0.335				
NCI-H520	1.35	1.4	1.16	1.03					0.21	0.256	0.179	0.268	0.269	0.248	0.252	0.216	0.733	0.976	0.637	0.779
NCI-H522					1.07	0.914	0.769	0.846	0.866	0.984	0.962	1.11	1.15	1.06	0.975	1.17				
NCI-H596	0.906	1.08	1.07	0.816	1.07	1.36	1.23	1.04					0.913	0.975	0.929	1.08	1.04	1.03	1.01	1.05
NCI-H650					0.978	1.29	0.921	0.904	0.317	0.296	0.39	0.342	0.701	0.929	0.882	0.748	1.09	1.05	0.668	0.747
NCI-H661									0.439	0.445	0.399	0.392	0.951	0.882	0.821	0.736	0.313	0.541	0.552	0.445
NCI-H1299	1.08	1.05	1.05	1.06													0.981	0.967	0.975	0.949
NCI-H1563													0.49	0.542	0.505	0.511	0.967	0.91	1.07	1.01
NCI-H1623													0.465	0.473	0.515	0.499				
NCI-H1648					0.498	0.758	0.747	0.67	0.299	0.243	0.26	0.228								
NCI-H1650	1.16	1.25	1.36	1.25					0.334	0.375	0.333	0.274	0.191	0.199	0.209	0.191	0.749	0.875	0.675	0.668
NCI-H1703	1.25	1.3	1.29	0.942	0.132			0.143									0.901	1.31	0.906	0.952
NCI-H2009	1.23	1.31	1.19	1.24					0.203	0.231	0.236	0.239	1.01	1.04	1.03	1.01	0.93	0.318	0.855	0.9
NCI-H2023	1.36	1.15	1.12	0.988					0.343	0.353	0.355	0.33	0.741	0.703	0.667	0.444	1.1	0.849	0.768	0.847
NCI-H2228	0.954	0.853	1.44	0.969					1.03	0.921	0.804	0.797	0.16	0.146	0.162	0.182	1.26	1.25	1.02	1.23
NCI-H2342					0.454	0.484	0.492	0.447	0.531	0.561	0.54	0.564	0.655	0.82	0.759	0.777				
SK-LU-1	1	0.69	0.789	1.02					0.391	0.41	0.394	0.369	0.216	0.375	0.223	0.191	0.601	0.942	0.67	0.867
SW 900					0.656	0.636	0.735	0.666		0.599	0.554	0.474	0.173	0.157	0.16	0.214				
SW 1573	1.22	1.39	1.21	0.808					0.381	0.292	0.455	0.474	0.214	0.175	0.223	0.371	1.05	1.16	1	1.09
UMC-11	0.285	0.327	0.283	0.294					0.339	0.322	0.371	0.277	1.05	0.986	1.04	0.928	0.994	0.987	0.978	1.07
